Tests used:
[1] = target: T1, Renin (Homo sapiens, UniProt P00797); experiment: Inhibition of trypsin-activated recombinant human Fc-tagged renin expressed in BacMam virus infected HEK-F cells using Arg-Glu-Lys(5-Fam)-Ile-His-Pro-Phe-His-Leu-Val-IleHis-Thr-Lys(5,6 Tamra)-Arg-CONH2 as substrate measured after 2 hrs
T1 sequence (P00797 whole entry): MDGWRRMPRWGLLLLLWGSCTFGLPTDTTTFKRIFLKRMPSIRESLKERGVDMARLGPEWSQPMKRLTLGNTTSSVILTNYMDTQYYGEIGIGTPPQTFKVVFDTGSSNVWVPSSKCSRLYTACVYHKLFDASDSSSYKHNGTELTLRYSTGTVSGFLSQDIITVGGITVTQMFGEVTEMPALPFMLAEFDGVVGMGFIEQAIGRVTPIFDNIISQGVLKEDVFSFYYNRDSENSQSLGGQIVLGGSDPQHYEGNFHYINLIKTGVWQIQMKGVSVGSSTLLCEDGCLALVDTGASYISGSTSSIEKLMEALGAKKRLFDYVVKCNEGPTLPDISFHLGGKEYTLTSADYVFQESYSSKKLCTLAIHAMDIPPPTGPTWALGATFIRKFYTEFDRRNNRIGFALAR

[2] = target: T1, Renin; experiment: Inhibition of renin in human plasma using angiotensinogen as substrate measured for 90 mins by [125I]-angiotensin based radioimmunoassay
[3] = target: Cytochrome P450 3A4 (Homo sapiens, UniProt P08684); experiment: Inhibition of human CYP3A4 expressed in Escherichia coli co-expressing CYP-reductase using diethoxyfluorescein as substrate measured after 10 mins by fluorescence assay
Chain of Cytochrome P450 3A4 (P08684 whole entry): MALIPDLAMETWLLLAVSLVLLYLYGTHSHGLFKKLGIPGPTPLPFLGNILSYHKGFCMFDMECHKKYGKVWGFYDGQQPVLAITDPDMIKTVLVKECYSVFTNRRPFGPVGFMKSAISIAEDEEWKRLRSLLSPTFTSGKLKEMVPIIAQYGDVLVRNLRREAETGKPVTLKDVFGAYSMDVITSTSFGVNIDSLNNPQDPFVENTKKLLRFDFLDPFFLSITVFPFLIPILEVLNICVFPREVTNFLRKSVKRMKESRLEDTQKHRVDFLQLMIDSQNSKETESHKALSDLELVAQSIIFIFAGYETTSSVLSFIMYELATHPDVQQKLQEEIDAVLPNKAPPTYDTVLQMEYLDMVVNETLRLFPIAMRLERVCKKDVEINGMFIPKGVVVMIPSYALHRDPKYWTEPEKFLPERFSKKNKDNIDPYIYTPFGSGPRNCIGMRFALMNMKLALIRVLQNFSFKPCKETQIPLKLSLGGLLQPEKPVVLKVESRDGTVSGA

| IC50 [1] | IC50 [2] | IC50 [3] | SMILES |
| --- | --- | --- | --- |
| 20 nM | 460 nM |  | CCc1cccc(-c2c(F)cccc2C(O)(CCCNC(=O)OC)[C@@H]2CCCN(C(=O)CC[C@H](N)CO)C2)c1 (some centres undefined) |
| 0.6 nM | 3.3 nM | 90 nM | CCc1cccc(-c2c(F)cccc2C(O)(CCCNC(=O)OC)[C@@H]2CCCN(C(=O)[C@@H]3CC[C@H](N)C3)C2)c1 (some centres undefined) |
| 320 nM |  |  | CCc1cccc(-c2c(F)cccc2C(O)(CCCNC(=O)OC)[C@@H]2CCCN(C(=O)CC[C@H](N)C(=O)O)C2)c1 (some centres undefined) |
| 25 nM | 540 nM |  | CCc1cccc(-c2c(F)cccc2C(O)(CCCNC(=O)OC)[C@@H]2CCCN(C(=O)C3CCNC3)C2)c1 (some centres undefined) |
| 800 nM |  |  | CCc1cccc(-c2c(F)cccc2C(O)(CCCNC(=O)OC)[C@@H]2CCCN(C(=O)CC3CCCN3)C2)c1 (some centres undefined) |
| 2 nM | 29 nM | 840 nM | CCc1cccc(-c2c(F)cccc2C(O)(CCCNC(=O)OC)[C@@H]2CCCN(C(=O)CC(O)CNC)C2)c1 (some centres undefined) |
| 0.6 nM | 4.3 nM | 49 nM | CCc1cccc(-c2c(Cl)cccc2C(O)(CCCNC(=O)OC)[C@@H]2CCCN(C(=O)[C@@H]3CC[C@H](NC)C3)C2)c1 (some centres undefined) |
| 1.3 nM |  |  | CCc1cccc(-c2c(F)cccc2C(O)(CCCNC(=O)OC)[C@@H]2CCCN(C(=O)C[C@H](O)CN)C2)c1 (some centres undefined) |
| 63 nM | 3800 nM |  | CCc1cccc(-c2c(F)cccc2C(O)(CCCNC(=O)OC)[C@@H]2CCCN(C(=O)CN)C2)c1 (some centres undefined) |
| 3.2 nM | 100 nM |  | CCc1cccc(-c2c(F)cccc2C(O)(CCCNC(=O)OC)[C@@H]2CCCN(C(=O)CCCCCN)C2)c1 (some centres undefined) |
| 25 nM | 540 nM |  | CCc1cccc(-c2c(F)cccc2C(O)(CCCNC(=O)OC)[C@@H]2CCCN(C(=O)CC[C@H](N)C(=O)OC)C2)c1 (some centres undefined) |
| 630 nM |  |  | CCc1cccc(-c2c(F)cccc2C(O)(CCCNC(=O)OC)[C@@H]2CCCN(C(=O)CC[C@H](N)C(N)=O)C2)c1 (some centres undefined) |
| 1.6 nM | 24 nM |  | CCc1cccc(-c2c(F)cccc2C(O)(CCCNC(=O)OC)[C@@H]2CCCN(C(=O)CC3CNCCO3)C2)c1 (some centres undefined) |
| 1.6 nM | 23 nM |  | CCc1cccc(-c2c(F)cccc2C(O)(CCCNC(=O)OC)[C@@H]2CCCN(C(=O)CC3CCNCC3)C2)c1 (some centres undefined) |
| 1000 nM |  |  | CCc1cccc(-c2c(F)cccc2C(O)(CCCNC(=O)OC)[C@@H]2CCCN(C(=O)C3CNCCO3)C2)c1 (some centres undefined) |
| 1 nM | 13 nM | 240 nM | CCc1cccc(-c2c(F)cccc2C(O)(CCCNC(=O)OC)[C@@H]2CCCN(C(=O)CCCN)C2)c1 (some centres undefined) |
| 2000 nM |  |  | CCc1cccc(-c2c(F)cccc2C(O)(CCCNC(=O)OC)[C@@H]2CCCN(C(=O)C3CCCCN3)C2)c1 (some centres undefined) |
| 6.3 nM | 180 nM |  | CCc1cccc(-c2c(F)cccc2C(O)(CCCNC(=O)OC)[C@@H]2CCCN(C(=O)CC[C@@H](N)CO)C2)c1 (some centres undefined) |

| IC50 [1] | IC50 [2] | IC50 [3] | SMILES |
| --- | --- | --- | --- |
| 6.3 nM | 120 nM |  | CCc1cccc(-c2c(F)cccc2C(O)(CCCNC(=O)OC)[C@@H]2CCCN(C(=O)NCCNC)C2)c1 (some centres undefined) |
| 16 nM | 450 nM |  | CCc1cccc(-c2c(F)cccc2C(O)(CCCNC(=O)OC)[C@@H]2CCCN(C(=O)CC[C@H](N)C(=O)OCc3ccccc3)C2)c1 (some centres undefined) |
| 40 nM | 840 nM |  | CCc1cccc(-c2c(F)cccc2C(O)(CCCNC(=O)OC)[C@@H]2CCCN(C(=O)[C@@H](O)CCN)C2)c1 (some centres undefined) |
| 3.1 nM | 8.4 nM | 34 nM | CCc1cccc(-c2c(Cl)cccc2C(O)(CCCNC(=O)OC)[C@@H]2CCCN(C(=O)[C@@H]3CC[C@H](N)C3)C2)c1 (some centres undefined) |
| 80 nM |  |  | CCc1cccc(-c2c(F)cccc2C(O)(CCCNC(=O)OC)[C@@H]2CCCN(C(=O)CCC3CCNCC3)C2)c1 (some centres undefined) |
| 6.3 nM | 102 nM |  | CCc1cccc(-c2c(F)cccc2C(O)(CCCNC(=O)OC)[C@@H]2CCCN(C(=O)C3CCNCC3)C2)c1 (some centres undefined) |
| 630 nM |  |  | CCc1cccc(-c2c(F)cccc2C(O)(CCCNC(=O)OC)[C@@H]2CCCN(C(=O)CCCN(C)C)C2)c1 (some centres undefined) |
| 2.5 nM | 63 nM |  | CCc1cccc(-c2c(F)cccc2C(O)(CCCNC(=O)OC)[C@@H]2CCCN(C(=O)CCCNCCO)C2)c1 (some centres undefined) |
| 2 nM | 36 nM | 440 nM | CCc1cccc(-c2c(F)cccc2C(O)(CCCNC(=O)OC)[C@@H]2CCCN(C(=O)CC(O)CN)C2)c1 (some centres undefined) |
| 3.2 nM | 150 nM |  | CCc1cccc(-c2c(F)cccc2C(O)(CCCNC(=O)OC)[C@@H]2CCCN(C(=O)NCCN)C2)c1 (some centres undefined) |
| 2 nM | 120 nM |  | CCc1cccc(-c2c(F)cccc2C(O)(CCCNC(=O)OC)[C@@H]2CCCN(C(=O)CCCCN)C2)c1 (some centres undefined) |
| 126 nM |  |  | CCc1cccc(-c2c(F)cccc2C(O)(CCCNC(=O)OC)[C@@H]2CCCN(C(=O)CCC3CCCCN3)C2)c1 (some centres undefined) |
| 1 nM | 16 nM | 140 nM | CCc1cccc(-c2c(Cl)cccc2C(O)(CCCNC(=O)OC)[C@@H]2CCCN(C(=O)CCCNC)C2)c1 (some centres undefined) |
| 5 nM | 50 nM |  | CCc1cccc(-c2c(F)cccc2C(O)(CCCNC(=O)OC)[C@@H]2CCCN(C(=O)CC(CNC)OC)C2)c1 (some centres undefined) |
| 2 nM | 40 nM |  | CCc1cccc(-c2c(F)cccc2C(O)(CCCNC(=O)OC)[C@@H]2CCCN(C(=O)CC3CCCNC3)C2)c1 (some centres undefined) |
| 320 nM |  |  | CCc1cccc(-c2c(F)cccc2C(O)(CCCNC(=O)OC)[C@@H]2CCCN(C(=O)C3CCCNC3)C2)c1 (some centres undefined) |
| 100 nM |  |  | CCc1cccc(-c2c(F)cccc2C(O)(CCCNC(=O)OC)[C@@H]2CCCN(C(=O)CCN)C2)c1 (some centres undefined) |
| 0.3 nM | 1.8 nM | 250 nM | CCc1cccc(-c2c(Cl)cccc2C(O)(CCCNC(=O)OC)[C@@H]2CCCN(C(=O)[C@H]3C[C@@H](N)[C@@H](O)C3)C2)c1 (some centres undefined) |
